Experimental data taken from US7790400B2, “Delta-9-tetrahydrocannabinol detection method” (Concateno UK Limited, priority 2004, dated 2010).

How the values were obtained:
[1] = tested on: mouse monoclonal anti-THC antibody; assay: Interference of free 5-pentylresorcinol with antibody binding to immobilised 5-pentylresorcinol-macromolecule conjugates; conditions: 5-pentylresorcinol in free solution
[2] = tested on: antibodies raised to THC-COOH coupled to a carrier protein via the phenolic group at C1; conditions: relative to THC-COOH; commercially available assay; cited from earlier work
[3] = tested on: gold-labelled mouse monoclonal anti-THC antibody; assay: Lateral flow immunochromatography test for cannabis, immobilised BSA-CAN (5-pentylresorcinol/BSA) conjugate, spiked oral fluid, Cozart Rapiscan reader; conditions: for Detectable level by competitive immunoassay: 5-pentylresorcinol conjugate with commercial anti-THC antibody; for Concentration giving positive Cozart Rapiscan Response: immobilised conjugate BSA-CAN, lowest concentration in spiked drug-free oral fluid giving a positive signal on the reader
[4] = tested on: gold-labelled mouse monoclonal anti-THC antibody; assay: Lateral flow immunochromatography test for cannabis, immobilised BSA-THC conjugate, spiked oral fluid, Cozart Rapiscan reader; conditions: lowest concentration in spiked drug-free oral fluid giving a positive signal on the reader

Which “Interference with binding of anti-THC antibody to immobilised conjugate” value [1] does the source give for CCCCCc1cc(O)cc(O)c1 [5-pentylresorcinol] here?
The value was “does not interfere”.

For CCCCCc1cc(O)c2c(c1)OC(C)(C)[C@@H]1CCC(C)=C[C@@H]21 [THC, Delta-9-tetrahydrocannabinol], which Cross-reactivity [2] is on record?
The Cross-reactivity was 5%.

And the “Detectable level by competitive immunoassay” value [3]?
The value was at most 20 ng/mL.

What about the “Concentration giving positive Cozart Rapiscan Response” value [3] of the same compound?
Its value is 20 ng/mL.

What about the “Increase of sensitivity of detection with BSA-CAN versus BSA-THC” value ([3]; lateral flow strips, BSA-CAN compared with BSA-THC) of the same compound?
The value was “about 10 fold”.

What about the “Concentration giving positive Cozart Rapiscan Response” value [4] of the same compound?
The value was 200 ng/mL.

With CCCCCc1cc(O)c2c(c1)OC(C)(C)[C@@H]1CCC(C(=O)O)=C[C@@H]21 [THC—COOH, 11-nor-9-carboxy-delta-9-THC] as the compound, how does the “Detectable level by competitive immunoassay” value [3] read?
Its value is “about 1.0 ng/ml”.

And the “Concentration giving positive Cozart Rapiscan Response” value [3]?
The value was 1.0 ng/mL.

What about the “Concentration giving positive Cozart Rapiscan Response” value [4] of the same compound?
The value was 10 ng/mL.

Which results are given for CCCCCc1cc(O)c2c(c1)OC(C)(C)[C@@H]1CCC(CO)=C[C@@H]21 [THC—OH, 11-hydroxy-delta-9-THC]?
Sensitivity of detection compared with the parent drug THC ([3]; 5-pentylresorcinol conjugate and anti-THC antibody combination): comparable sensitivity to the parent drug; Concentration giving positive Cozart Rapiscan Response [3]: 20 ng/mL; Concentration giving positive Cozart Rapiscan Response [4]: 200 ng/mL
